Measurements from patent US10738028B2, “Spiro three-membered ring, spiro five-membered ring peptide deformylase inhibitor and use thereof in antibacteria and anti-tumor” (priority 2016, dated 2020).
Read-outs that look alike come from different tables or passages of the source.

How the values were obtained:
Type in all cases: cell-based
[1] = system: HCT-116 colorectal cancer cell line; assay: CCK-8 proliferation inhibition; settings: Homo sapiens, HCT-116, 72 h, concentration of 30 μM, 72 hours, CCK-8
How it was run: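 Proliferation over 72 hours of compound treatment was measured with CCK-8 against a 1‰ DMSO control.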

[2] = system: Moraxella catarrhalis (BCA); assay: MIC, two-fold agar dilution (CLSI), clinical isolates
How it was run: (§1)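 Samples are serially diluted two-fold in agar following CLSI guidance. Plates are then inoculated with the tested strains. The lowest inhibiting concentration is recorded as MIC.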

[3] = system: Enterococcus faecium (EFM); assay: as above
How it was run: as §1

[4] = system: Escherichia coli (including ESBLs, non-ESBLs); assay: as above
How it was run: as §1

[5] = system: Enterococcus faecalis (EFA); assay: as above
How it was run: as §1

[6] = system: methicillin-resistant Staphylococcus aureus (MRSA); assay: as above
How it was run: as §1

[7] = system: methicillin-sensitive Staphylococcus aureus (MSSA); assay: as above
How it was run: as §1

[8] = system: Streptococcus pneoumoniae (SPN); assay: as above
How it was run: as §1

[9] = system: methicillin-sensitive Staphylococcus epidermidis (MSSE); assay: as above
How it was run: as §1

[10] = system: methicillin-resistant Staphylococcus epidermidis (MRSE); assay: as above
How it was run: as §1

[11] = system: MGC-803 gastric cancer cell line; assay: CCK-8 proliferation inhibition; settings: Homo sapiens, MGC-803, 72 h, concentration of 30 μM
Source text: (§2) 2. The present invention adopts the CCK-8 method to determine the proliferation inhibition effect of the spiro three-membered ring, spiro five-membered ring peptide deformylase inhibitor as described in Examples 1-80 against colorectal cancer cells, lung cancer cells, gastric cancer cells, liver cancer cells, and the like. […] The compound having the best activity synthesized in Example 64 was further tested for its inhibitory activity against other tumor cells including T cell leukemia, acute myeloid leukemia, cervical cancer, breast cancer, prostate cancer and osteosarcoma, and the like (see Table 7).
(§3) (1) HCT-116 colorectal cancer cell line, A549 lung cancer cell line, MGC-803 gastric cancer cell line, BEL-7402 liver cancer cell line, Jurkat T cell leukemia cell line, HL60 acute myeloid leukemia cell line, Hela cervical cancer cell line, MCF-7 breast cancer cell line, PC3 prostate cancer cell line and SAOS-2 osteosarcoma cell line were made into single cell suspension, 180 μL of which was inoculated into 96-well culture plate, which was cultured overnight in CO2 incubator (37° C., 5% CO2, 95% air).
(§4) (2) Each of the spiro three-membered ring, spiro five membered ring peptide deformylase inhibitors was dissolved in DMSO, and was further formulated into drug solution with required different final concentration using corresponding cell culture medium. The drug solutions were added to the above cells respectively (20 μL/well), with the control group added with 1‰ DMSO, and cultured in a CO2 incubator for 72 hours.
(§5) (3) After incubation for 72 hours, the culture solution was decanted, and 100 μL of 1:10 diluted CCK-8 solution was added.
(§6) Wherein, in step (1), the concentration of the single cell suspension was 2000 cells/well.
(§7) Wherein, in step (2), HCT-116 cells were cultured in McCoy's 5A medium (containing 10% newborn bovine serum, 1% double antibody); A549 and PC3 cells were cultured in F12 medium (containing 10% newborn bovine serum, 1% double antibody); MGC-803, BEL-7402, SAOS-2, Jurkat and HL60 cells were cultured in 1640 medium (containing 10% newborn bovine serum, 1% double antibody); and MCF-7 and Hela cells were cultured in DMEM high glucose medium (containing 10% newborn bovine serum, 1% double antibody).

[12] = system: A549 lung cancer cell line; assay: CCK-8 proliferation inhibition; settings: Homo sapiens, A549, 72 h, concentration of 30 μM
Source text: as §2, §3, §4, §5, §6, §7

[13] = system: BEL-7402 liver cancer cell line; assay: CCK-8 proliferation inhibition; settings: Homo sapiens, Bel-7402, 72 h, concentration of 30 μM
Source text: as §2, §3, §4, §5, §6, §7

SMILES: Cc1cc(NC(=O)[C@@H]2CC3(CC3)CN2C(=O)[C@@H](CC(=O)NO)CC2CCCC2)no1 [Example 71]
- inhibition at 30 µM ([1]; Table 5, read-out: Inhibition of proliferation, Colorectal cancer HCT116): ≥ 30%
- inhibition at 30 µM ([1]; read-out: HCT116 inhibition rate/%): 30%
- Anti-bacterial activity (MIC) ([2]; strain BCA 14-1): 0.5 µg/mL
- Anti-bacterial activity (MIC) ([2]; strain BCA 14-4): 0.5 µg/mL
- Anti-bacterial activity (MIC) ([2]; strain BCA 14-5): 0.25 µg/mL
- Anti-bacterial activity (MIC) ([2]; strain BCA 14-6): 0.5 µg/mL
- Anti-bacterial activity (MIC) ([2]; strain BCA 14-7): 0.5 µg/mL
- Anti-bacterial activity (MIC) ([2]; strain BCA 14-8): 0.25 µg/mL
- Anti-bacterial activity (MIC) ([2]; strain BCA 14-10): 0.125 µg/mL
- Anti-bacterial activity (MIC) ([3]; strain EFM 15-1): 0.5 µg/mL
- Anti-bacterial activity (MIC) ([3]; strain EFM 15-2): 2 µg/mL
- Anti-bacterial activity (MIC) ([3]; strain EFM 15-3): 0.25 µg/mL
- Anti-bacterial activity (MIC) ([3]; strain EFM 15-4): 2 µg/mL
- Anti-bacterial activity (MIC) ([3]; strain EFM 15-5): 0.125 µg/mL
- Anti-bacterial activity (MIC) ([3]; strain EFM 15-6): 0.5 µg/mL
- Anti-bacterial activity (MIC), strain ECO+ 15-1 ([4]; clinical isolate ECO+ 15-1): 16 µg/mL
- Anti-bacterial activity (MIC), strain ECO+ 15-2 ([4]; clinical isolate ECO+ 15-2): 16 µg/mL
- Anti-bacterial activity (MIC), strain ECO+ 15-3 ([4]; clinical isolate ECO+ 15-3): 32 µg/mL
- Anti-bacterial activity (MIC), strain ECO+ 15-4 ([4]; clinical isolate ECO+ 15-4): 32 µg/mL
- Anti-bacterial activity (MIC), strain ECO− 15-1 ([4]; clinical isolate ECO− 15-1): 16 µg/mL
- Anti-bacterial activity (MIC), strain ECO− 15-2 ([4]; clinical isolate ECO− 15-2): 16 µg/mL
- Anti-bacterial activity (MIC), strain ECO− 15-3 ([4]; clinical isolate ECO− 15-3): 16 µg/mL
- Anti-bacterial activity (MIC), strain ECO− 15-4 ([4]; clinical isolate ECO− 15-4): 32 µg/mL
- Anti-bacterial activity (MIC) ([5]; strain EFA 15-1): 2 µg/mL
- Anti-bacterial activity (MIC) ([5]; strain EFA 15-2): 2 µg/mL
- Anti-bacterial activity (MIC) ([5]; strain EFA 15-3): 0.5 µg/mL
- Anti-bacterial activity (MIC) ([5]; strain EFA 15-4): 2 µg/mL
- Anti-bacterial activity (MIC) ([5]; strain EFA 15-5): 2 µg/mL
- Anti-bacterial activity (MIC) ([5]; strain EFA 15-6): 2 µg/mL
- Anti-bacterial activity (MIC) ([5]; strain EFA 15-9): 1 µg/mL
- Anti-bacterial activity (MIC), strain MRSA 15-1 ([6]; clinical isolate MRSA 15-1): 0.125 µg/mL
- Anti-bacterial activity (MIC), strain MRSA 15-2 ([6]; clinical isolate MRSA 15-2): 1 µg/mL
- Anti-bacterial activity (MIC), strain MRSA 15-3 ([6]; clinical isolate MRSA 15-3): 0.125 µg/mL
- Anti-bacterial activity (MIC), strain MRSA 15-4 ([6]; clinical isolate MRSA 15-4): 0.5 µg/mL
- Anti-bacterial activity (MIC), strain MSSA 15-3 ([7]; clinical isolate MSSA 15-3): 0.25 µg/mL
- Anti-bacterial activity (MIC), strain MSSA 15-4 ([7]; clinical isolate MSSA 15-4): 0.125 µg/mL
- Anti-bacterial activity (MIC), strain MSSA 15-5 ([7]; clinical isolate MSSA 15-5): 0.06 µg/mL
- Anti-bacterial activity (MIC), strain MSSA 15-6 ([7]; clinical isolate MSSA 15-6): 0.25 µg/mL
- Anti-bacterial activity (MIC) ([8]; strain SPN 16-2): 2 µg/mL
- Anti-bacterial activity (MIC) ([8]; strain SPN 16-4): 0.25 µg/mL
- Anti-bacterial activity (MIC), strain MSSE 15-3 ([9]; clinical isolate MSSE 15-3): 0.16 µg/mL
- Anti-bacterial activity (MIC), strain MSSE 15-4 ([9]; clinical isolate MSSE 15-4): 0.06 µg/mL
- Anti-bacterial activity (MIC), strain MSSE 15-5 ([9]; clinical isolate MSSE 15-5): 0.06 µg/mL
- Anti-bacterial activity (MIC), strain MSSE 15-6 ([9]; clinical isolate MSSE 15-6): 0.06 µg/mL
- Anti-bacterial activity (MIC), strain MRSE 15-1 ([10]; clinical isolate MRSE 15-1): 0.06 µg/mL
- Anti-bacterial activity (MIC), strain MRSE 15-2 ([10]; clinical isolate MRSE 15-2): 0.125 µg/mL
- Anti-bacterial activity (MIC), strain MRSE 15-3 ([10]; clinical isolate MRSE 15-3): 0.125 µg/mL
- Anti-bacterial activity (MIC), strain MRSE 15-7 ([10]; clinical isolate MRSE 15-7): 0.25 µg/mL
- inhibition at 30 µM [11]: 34%
- inhibition at 30 µM [12]: 5%
- inhibition at 30 µM [13]: 49%
